Series [1] deals with SMN2 minigene (full length SMN2 minigene mRNA containing SMN2 exon 7). Kind of series: SMN2 minigene mRNA splicing RT-qPCR assay in cultured cells. Conditions: Homo sapiens, HEK293-H, read-out: EC1.5x for production of full length SMN2 mRNA. The format is cell-based, human. An outline of the steps: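 Read-out: full-length (exon 7-included) SMN2 minigene mRNA by multiplex RT-qPCR with GAPDH, efficiency-corrected (1+E)^−Ct, GAPDH-normalized and divided by vehicle. Stably transfected HEK293H cells, 24 h compound exposure, duplicates per concentration. Value is EC1.5x, reported as star ranges.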
(Quantitative PCR measures a nucleic acid by following its amplification.)

The subject of another series is Smn protein. Kind of series: Smn protein assay in cultured cells (SMN HTRF). It is filed as cell-based, human. Particulars: for EC1.5x (concentration giving 1.5-fold Smn protein increase): read-out: EC1.5x for Smn protein expression. The procedure, abridged: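 Lysates in RIPA with protease inhibitors are incubated overnight at room temperature with HTRF anti-SMN antibodies. EC1.5x is derived from fold increase in ΔF over vehicle.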
(In TR-FRET formats the signal depends on donor and acceptor labels being close together.)

The mark [2] stands for this setting: SMA patient fibroblast cells, 48 hours, 7-point concentration data, fold increase relative to vehicle control (SMN HTRF).
[3] abbreviates: HEK293H cells stably transfected with SMN2-A minigene, 24 hours, 7-point concentration curve, 1.5-fold relative to vehicle-treated cells.
Setting [4] is: SMA Type 1 patient fibroblast cells (GM03813), 48 hours, 7-point concentration curve, SMN HTRF, concentration producing 1.5 times Smn protein vs DMSO vehicle control.

Where two headings read alike, the source gives them in different places.

Turning to `O=c1oc2cc(N3CCNCC3)ccc2cc1-c1ccncc1F` [Compound 126, 3-(3-fluoropyridin-4-yl)-7-(piperazin-1-yl)-2H-chromen-2-one], the melting point (in general, the temperature, or range, at which the solid turns liquid) was in the range of 202 to 204 °C. The EC (1.5-fold) in series [1] (24 h) is 3 to 30 µM. Also, the “maximum fold (Fold) increase of Smn protein” value (shortened to “maximum fold (Fold) increase”) in the series on Smn protein (setting [2]) is given as “* (maximum fold increase of ≤1.2)”.
For `Cc1cn2cc(-c3cc4ccc(CCCNC(CO)CO)cc4oc3=O)nc2c(C)n1` [Compound 882, 7-{3-[(1,3-dihydroxypropan-2-yl)amino]propyl}-3-(6,8-dimethylimidazo[1,2-a]pyrazin-2-yl)-2H-chromen-2-one], the melting point was 195 to 199 °C. Also, the EC (1.5-fold) in series [1] (setting [3]) is less than 0.1 µM. Also, the EC1.5x (concentration giving 1.5-fold Smn protein increase) with Smn protein (setting [4]) is less than 300 nM. Besides, the “maximum fold (Fold) increase” value in the series with Smn protein (setting [2]) was “**** (fold increase between >1.5 and ≤1.65)”.
Compound `C[C@@H]1CN(c2ccc3cc(-c4cc5ccccn5c4)c(=O)oc3c2)C[C@H](C)N1` [Compound 553, 7-[(3R,5S)-3,5-dimethylpiperazin-1-yl]-3-(indolizin-2-yl)-2H-chromen-2-one] yielded a melting point of 164 to 167 °C. In addition, the EC (1.5-fold) in series [1] (setting [3]) fell in the range of 0.3 to 1 µM. Also, the “maximum fold (Fold) increase” value in the series with Smn protein (setting [2]) was “* (maximum fold increase of ≤1.2)”.
In the case of `Cc1ccn2nc(-c3cc4ccc(N5CCNC(C)(C)C5)cc4oc3=O)cc2c1` [Compound 305, 7-(3,3-dimethylpiperazin-1-yl)-3-(5-methylpyrazolo[1,5-a]pyridin-2-yl)-2H-chromen-2-one], the melting point is 203 to 205 °C. The EC (1.5-fold) in series [1] (setting [3]) was in the range of 0.3 to 1 µM. Besides, the “maximum fold (Fold) increase” value in the series with Smn protein (setting [2]) is “** (fold increase between >1.2 and ≤1.35)”.
As for `C[C@@H]1CN(c2ccc3cc(-c4cn5cccc(Cl)c5n4)c(=O)oc3c2)C[C@H](C)N1` [Compound 120, 3-(8-chloroimidazo[1,2-a]pyridin-2-yl)-7-[(3R,5S)-3,5-dimethylpiperazin-1-yl]-2H-chromen-2-one], the melting point was 286 °C (dec.). The EC (1.5-fold) in series [1] (setting [3]) is less than 0.1 µM. Also, the EC1.5x (concentration giving 1.5-fold Smn protein increase) in the series on Smn protein (setting [4]) is less than 300 nM. Moreover, the “maximum fold (Fold) increase” value in the series with Smn protein (setting [2]) was “**** (fold increase between >1.5 and ≤1.65)”.
For `Cc1csc2nc(-c3cc4ccc(N5CCNCC5)cc4oc3=O)cn12` [Compound 98, 3-(3-methylimidazo[2,1-b][1,3]thiazol-6-yl)-7-(piperazin-1-yl)-2H-chromen-2-one], the melting point was more than 300 °C. In addition, the EC (1.5-fold) in series [1] (setting [3]) lay within 1 to 3 µM. In the series on Smn protein (setting [4]), the EC1.5x (concentration giving 1.5-fold Smn protein increase) lay within 1000 to 3000 nM. Also, in the series on Smn protein (setting [2]), the “maximum fold (Fold) increase” value was “*** (fold increase between >1.35 and ≤1.5)”.
In the case of `Cc1cn2cc(-c3cc4ccc(N5C[C@@H]6[C@H](C5)[C@H]6N(C)C)cc4oc3=O)nc2c(C)n1` [Compound 761, 7-[(1R,5S,6s)-6-(dimethylamino)-3-azabicyclo[3.1.0]hex-3-yl]-3-(6,8-dimethylimidazo[1,2-a]pyrazin-2-yl)-2H-chromen-2-one], the melting point is 271 to 274 °C. The EC (1.5-fold) in series [1] (setting [3]) is less than 0.1 µM. Also, the EC1.5x (concentration giving 1.5-fold Smn protein increase) with Smn protein (setting [4]) is less than 300 nM. Further, the “maximum fold (Fold) increase” value with Smn protein (setting [2]) was “**** (fold increase between >1.5 and ≤1.65)”.
The compound `Cc1cccn2cc(-c3cc4ccc(N5CCN(C)CC5)cc4oc3=O)nc12` [Compound 84, 3-(8-methylimidazo[1,2-a]pyridin-2-yl)-7-(4-methylpiperazin-1-yl)-2H-chromen-2-one] had a melting point of 224 to 226 °C. Besides, the EC (1.5-fold) in series [1] (setting [3]) fell in the range of 0.3 to 1 µM. The EC1.5x (concentration giving 1.5-fold Smn protein increase) with Smn protein (setting [4]) lay in the range of 1000 to 3000 nM. In addition, the “maximum fold (Fold) increase” value in the series with Smn protein (setting [2]) was “*** (fold increase between >1.35 and ≤1.5)”.
As to `Cc1cn2cc(-c3cc4ccc(OCCN(CCO)CCO)cc4oc3=O)nc2c(C)n1` [Compound 896, 7-{2-[bis(2-hydroxyethyl)amino]ethoxy}-3-(6,8-dimethylimidazo[1,2-a]pyrazin-2-yl)-2H-chromen-2-one], the melting point fell in the range of 199 to 202 °C. Also, the EC (1.5-fold) in series [1] (setting [3]) was less than 0.1 µM. Also, the EC1.5x (concentration giving 1.5-fold Smn protein increase) in the series with Smn protein (setting [4]) is less than 300 nM. Besides, the “maximum fold (Fold) increase” value in the series with Smn protein (setting [2]) is “***** (fold increase >1.65)”.
As to `Cc1cn2cc(-c3cc4ccc(CN(C)C)cc4oc3=O)nc2c(C)n1` [Cpd 846, 7-[(dimethylamino)methyl]-3-(6,8-dimethylimidazo[1,2-a]pyrazin-2-yl)-2H-chromen-2-one], the melting point was 192 to 196 °C. For the same compound, the EC (1.5-fold) in series [1] (setting [3]) lay within 0.1 to 0.3 µM. Besides, the EC1.5x (concentration giving 1.5-fold Smn protein increase) with Smn protein (setting [4]) lay within 300 to 1000 nM. Also, the “maximum fold (Fold) increase” value in the series with Smn protein (setting [2]) was “***** (fold increase >1.65)”.
Regarding `Cc1cn2cc(-c3cc4ccc(N5C[C@@H](O)[C@H](N6CCCC6)C5)cc4oc3=O)cc2c(C)n1` [Compound 751, 3-(1,3-dimethylpyrrolo[1,2-a]pyrazin-7-yl)-7-[(3′R,4′R)-4′-hydroxy-1,3′-bipyrrolidin-1′-yl]-2H-chromen-2-one], the melting point lay in the range of 264 to 268 °C. In addition, in series [1] (setting [3]), the EC (1.5-fold) is less than 0.1 µM. For the same compound, in the series with Smn protein (setting [2]), the “maximum fold (Fold) increase” value was “** (fold increase between >1.2 and ≤1.35)”.
In turn, `O=c1oc2cc(N3CCNCC3)cc(F)c2cc1-c1ccccn1` [Compound 161, 5-fluoro-7-(piperazin-1-yl)-3-(pyridin-2-yl)-2H-chromen-2-one] registered a melting point of 221 to 225 °C. Further, the EC (1.5-fold) in series [1] (24 h) fell in the range of 1 to 3 µM. Further, in the series with Smn protein, the “maximum fold (Fold) increase” value is “*** (key: *: maximum fold increase of ≤1.2; **: fold increase between >1.2 and ≤1.35; ***: fold increase between >1.35 and ≤1.5; ****: fold increase between >1.5 and ≤1.65; *****: fold increase >1.65)”; the EC1.5x (concentration giving 1.5-fold Smn protein increase) was in the range of 3000 to 10000 nM.
Compound `Cc1cc(F)c2nc(-c3cc4ccc(N5CC6CCC5CN6)cc4oc3=O)cn2c1` (centres unmarked) [Compound 600, 7-(2,5-diazabicyclo[2.2.2]oct-2-yl)-3-(8-fluoro-6-methylimidazo[1,2-a]pyridin-2-yl)-2H-chromen-2-one] displayed a melting point of 246 to 256 °C. Also, the EC (1.5-fold) in series [1] (setting [3]) was less than 0.1 µM. For the same compound, the EC1.5x (concentration giving 1.5-fold Smn protein increase) in the series on Smn protein (setting [4]) is less than 300 nM. Also, the “maximum fold (Fold) increase” value in the series on Smn protein (setting [2]) is given as “***** (fold increase >1.65)”.
The compound `O=c1oc2cc(N3CCNCC3)ccc2cc1-c1nc2cncnc2[nH]1` [Compound 314, 7-(piperazin-1-yl)-3-(9H-purin-8-yl)-2H-chromen-2-one] came in with a melting point of 291 to 297 °C. In addition, in series [1] (setting [3]), the EC (1.5-fold) lay within 1 to 3 µM. The “maximum fold (Fold) increase” value with Smn protein (setting [2]) is “* (maximum fold increase of ≤1.2)”.
Take `Cc1cn2cc(-c3cc4ccc(CCCNC(C)C)cc4oc3=O)nc2c(C)n1` [Compound 858, 3-(6,8-dimethylimidazo[1,2-a]pyrazin-2-yl)-7-[3-(propan-2-ylamino)propyl]-2H-chromen-2-one]: the melting point lay within 184 to 187 °C. Besides, the EC (1.5-fold) in series [1] (setting [3]) is less than 0.1 µM. Moreover, the EC1.5x (concentration giving 1.5-fold Smn protein increase) in the series on Smn protein (setting [4]) is less than 300 nM. In addition, in the series on Smn protein (setting [2]), the “maximum fold (Fold) increase” value was “**** (fold increase between >1.5 and ≤1.65)”.
The compound `CCN1CCC(Oc2ccc3cc(-c4cn5cc(C)nc(C)c5n4)c(=O)oc3c2)CC1` [Compound 898, 3-(6,8-dimethylimidazo[1,2-a]pyrazin-2-yl)-7-[(1-ethylpiperidin-4-yl)oxy]-2H-chromen-2-one] displayed a melting point of 175 to 177 °C. Also, the EC (1.5-fold) in series [1] (setting [3]) is less than 0.1 µM. The EC1.5x (concentration giving 1.5-fold Smn protein increase) in the series on Smn protein (setting [4]) was less than 300 nM. Also, in the series with Smn protein (setting [2]), the “maximum fold (Fold) increase” value is “***** (fold increase >1.65)”.

The record behind these values is patent USRE47689E1, “Compounds for treating spinal muscular atrophy” (PTC Therapeutics, Inc., priority 2011, dated 2019).
